{"source": "patent US5736629A", "about": "“Herbicide resistant rice” (priority 1997, dated 1998)", "assay_type_in_all_cases": "in vivo", "key": {"[1]": {"tested_on": "resistant progeny row (rice line ATCC 75295)", "test": "Open-field spray screen of anther-culture progeny rows, resistant row", "description": "This resistant line was derived by conducting anther culture on the F2 progeny of a backcross made by pollinating a rice plant of the variety \"Lemont\" with pollen from the rice variety \"Mercury,\" followed by a backcross using pollen from this hybrid to pollinate a plant of the variety \"Mercury.\" The resulting backcross is described as Mercury//Lemont/Mercury. Anthers collected from a plant resulting from this backcross were plated on callus induction medium, and the resulting calli were transferred to plant regeneration media. The procedures used were generally as described in Croughan and Chu, \"Rice (Oryza saliva L.): Establishment of Callus Cultures and the Regeneration of Plants\" in Bajaj (Ed.), \"Biotechnology in Agriculture and Forestry,\" pp. 19-37 (1991). Several regenerated plants were produced and grown to maturity in a greenhouse to produce seed. Progeny seed were planted in an open field, and herbicide applications were made using a garden tractor-mounted spray rig.\nA set of 4,193 progeny rows derived from this anther culture procedure were planted in an open field, and were sprayed with 4 ounces per acre of Pursuit (1.00 ounce active ingredient imazethapyr per acre) at the four-leaf stage of seedling development. […]"}, "[2]": {"tested_on": "single surviving plant derived from rice variety AS3510 treated with 0.5% EMS", "test": "Field screen of mutagenised rice seedlings, surviving plant", "conditions": "imazethapyr 0.125 lb a.i. per acre (2X), 0.25% non-ionic surfactant; 3-4 leaf stage; about four weeks later", "text": "The second resistance mechanism resulted from inducing mutations in seeds of each of ten rice varieties. Mutations were induced by exposure either to gamma rays or to the chemical mutagen ethyl methanesulfonate (EMS). Ten-pound lots of seed of each variety were subjected to 25 k-rad of gamma irradiation from a Cobalt-60 source at the Nuclear Science Center, Louisiana State University, Baton Rouge, La. prior to planting. An additional ten pounds of seed of each variety was divided into three equal portions; and each portion was soaked for 16 hours in either 0.1%, 0.5%, or 1% EMS immediately prior to planting. Several hundred pounds of seed were harvested from plants grown from the seeds subjected to these mutagenic treatments.\nThe following spring the harvested seed was planted in strips in a field planting occupying a total of about three acres. At the 3-4 leaf stage of seedling development, herbicides were applied to screen for herbicide-resistant mutants. Half of the seedlings of each variety were sprayed with a 2X treatment of nicosulfuron, and half were sprayed with a 2X treatment of imazethapyr, in both cases by a tractor-mounted sprayer. Nicosulfuron was applied at the rate of 0.063 lb active ingredient (a.i.) per acre, and imazethapyr was applied at 0.125 lb a.i. per acre. Non-ionic surfactant (0.25%) was added to each spray solution. […]"}, "ATCC 75295 rice line": {"tested_on": "ATCC 75295 rice line", "test": "Field plot test with AHAS-inhibiting herbicides, ATCC 75295", "description": "The resistance of these plants to several other AHAS-inhibiting herbicides was also tested. Nine-foot-long field plots were planted with seven rows of rice per plot. The test included nine check rice varieties, and the ATCC 75295 rice line. A shielded spray boom was used to apply herbicide, spraying six of the seven rows in each plot. The four herbicides used were Pursuit (imazethapyr: (±)-2-[4,5-dihydro-4-methyl-4-(1-methylethyl)-5-oxo-1H-imidazol-2-yl]-5-ethyl-3-pyridinecarboxylic acid); Scepter (imazaquin: 2-[4,5-dihydro-4-methyl-4-(1-methylethyl)-5-oxo-1H-imidazol-2-yl]-3-quinolinecarboxylic acid); Accent (nicosulfuron: 2-(((((4,6-dimethoxypyrimidin-2-yl)aminocarbonyl)) aminosulfonyl))-N,N-dimethyl-3-pyridinecarboxamide); and Beacon (primisulfuron: 3-[4,6-bis(difluoromethoxy)-pyrimidin-2-yl]-1-(2-methoxycarbonylphenylsulfonyl)urea). The herbicides were applied to two replicate plots for each herbicide when the rice was at the three-leaf stage of maturity. Two replicate plots of each check variety and of the resistant line were left unsprayed as controls. The Accent treatment used 0.67 ounce of product (0.50 ounce active ingredient) per acre, with 0.25% nonionic surfactant. The Pursuit treatment used four ounces of product (1.00 ounce active ingredient) per acre, with 0.25% nonionic surfactant. The Scepter treatment used one pint of product (3.00 ounces active ingredient) per acre, with 0.25% nonionic surfactant. The Beacon treatment used 0.76 ounce of product (0.57 ounce active ingredient) per acre, with 0.25% nonionic surfactant. […] A similar test with the same rice varieties and the ATCC 75295 line was conducted at the five-leaf stage of development (i.e., plants fifteen days older than in the test described above), using Accent and Pursuit at the rates given above. […] The ATCC 75295 line was resistant only when herbicide was applied post-emergence."}}, "data": [{"compound": "CCc1cnc(C2=NC(C)(C(C)C)C(=O)N2)c(C(=O)O)c1", "note": "(racemic) [imazethapyr, (±)-2-[4,5-dihydro-4-methyl-4-(1-methylethyl)-5-oxo-1H-imidazol-2-yl]-5-ethyl-3-pyridinecarboxylic acid]", "values": [{"measurement": "Symptoms (in words)", "setting": "[1]; 4 ounces per acre Pursuit (1.00 ounce a.i. per acre), four-leaf stage, open field", "result": "no apparent symptoms"}, {"measurement": "Symptoms (in words)", "setting": "[1]; second spray 8 ounces/acre Pursuit (2.00 ounce a.i. per acre), four weeks after the initial treatment", "result": "no apparent symptoms"}, {"measurement": "Symptoms of injury (in words)", "setting": "[2]", "result": "No symptoms of injury"}, {"measurement": "Resistance of the rice line (in words)", "setting": "ATCC 75295 rice line; five-leaf stage (plants fifteen days older), same rates as in the three-leaf test", "result": "good resistance"}, {"measurement": "Resistance of the rice line (in words)", "setting": "ATCC 75295 rice line; three-leaf stage, per acre a.i.: Accent 0.50 ounce, Pursuit 1.00 ounce, Scepter 3.00 ounces, Beacon 0.57 ounce, 0.25% nonionic surfactant", "result": "good resistance"}]}]}
